Data as given in US20190388354A1, “IMPROVED COMPOSITIONS AND METHODS FOR REDUCING OVERDOSE” (priority 2017, published 2019).
Values joined by “and” are separate entries in the source; they are usually repeats but may differ in a detail not shown here. Equal values may be shown once.

Test: Effect of different alkalinizing agents on the pH of an acidic solution
Format: physicochemical
Procedure: Various alkalinizing agents were added to a solution of 0.1 N HCl with a starting pH of 2.0 and the pH of the solution was tested at different time points.

For `Cl.N=C(N)NCCC[C@H](N)C(=O)O` [Arginine HCl, L-arginine-HCl], the “pH of 0.1N HCl solution (starting pH 2.0)” value (“pH of 0.1N HCl solution” for short) (100 mg Arginine HCl in 200 ml, time: 10,20,30,40,50,60 min) was 2.20.
For `CNC[C@H](O)[C@@H](O)[C@H](O)[C@H](O)CO` [Meglumine, meglumine], the “pH of 0.1N HCl solution” value (120 mg in 200 ml, time: 10,20,30,40,50,60 min) was 2.16.
For `CC(=O)[O-].[Na+]` [Sodium Acetate, sodium acetate], the “pH of 0.1N HCl solution” value (200 mg in 200 ml, time: 10,20,30,40,50,60 min) was 4.96 and 5.08 and 5.21 and 5.34 and 4.73.
In the case of `O=C([O-])CC(O)(CC(=O)[O-])C(=O)[O-].[Na+].[Na+].[Na+]` [Sodium Citrate, sodium citrate], the “pH of 0.1N HCl solution” value (930 mg in 200 ml, time: 10,20,30,40,50,60 min) is reported as 5.53.
With `O=C([O-])[O-].[Ca+2]` [calcium carbonate] the “effect on the pH of the solution” value (240 mg/320 ml (0.75 mg/ml), 60 minute timecourse) was “rapidly raised the pH of the solution to neutral or higher” and the “effect on the pH of the solution” value (120-140 mg/200 ml, 60 minute timecourse) was “raise the pH of the solution to near neutral or neutral”.
In the case of `O=C([O-])[O-].[Mg+2]` [magnesium carbonate], the “pH reached” value (80 mg in 200 ml, 30 minute timecourse) is reported as “above 9” and the “pH of 0.1N HCl solution” value (100 mg Magnesium Carbonate in 200 ml, time: 10,20,30,40,50,60 min) is reported as 3.05.
For `[Mg+2].[OH-].[OH-]` [magnesium hydroxide], the “pH of 0.1N HCl solution” value (60 mg in 200 ml, time by row: r6-r15=1-10 min, r16-r20=20,30,40,50,60 min) was 2.96 and 2.99 and 3.00 and 3.01 and 2.50 and 2.66 and 2.83 and 2.92, the “pH of 0.1N HCl solution” value (60 mg per 500 mL, time by row: r8-r18=0-10 min, r19-r23=20,30,40,50,60 min) was 2.12 and 2.17 and 2.18 and 2.19 and 2.01 and 2.06 and the “effect on the pH of the solution” value (71 mg/200 ml, 81 mg/200 ml and 100 mg/200 ml, 60 minute timecourse) was “raised the pH of the solution to neutral or higher”. For the same compound, the “pH of 0.1N HCl solution” value (100 mg per 500 mL, time by row: r8-r18=0-10 min, r19-r23=20,30,40,50,60 min) was 2.21 and 2.33 and 2.38 and 2.40 and 2.41 and 2.03 and 2.10 and the “effect on the pH of the solution” value (100 mg/320 ml, 180 mg/500 ml, 120 mg/320 ml, 200 mg/500 ml and 240 mg/500 ml, 60 minute timecourse) was “rapidly raised the pH of the solution to neutral or higher”.
With `[O]=[Mg]` [magnesium oxide] the “effect on the pH of the solution” value (160 mg/320 ml (0.5 mg/ml), 60 minute timecourse) was “rapidly raised the pH of the solution to neutral or higher” and the “effect on the pH of the solution” value (80-120 mg/200 ml powder and 80 mg granular form in 200 ml, 60 minute timecourse) was “rapidly raise the pH of the solution to neutral or higher”.
For `O=C([O-])O.[Na+]` [sodium bicarbonate], the “pH of 0.1N HCl solution” value (20 mg per 320 mL, time by row: r6-r16=0-10 min, r17-r21=20,30,40,50,60 min) was 2.05 and 2.02 and 2.04, the “effect on the pH of the solution” value (20 mg/320 ml and 40 mg/320 ml, 60 minute timecourse) was “neither amount tested was sufficient to raise the pH to neutral or higher” and the “pH of 0.1N HCl solution” value (40 mg per 320 mL, time by row: r6-r16=0-10 min, r17-r21=20,30,40,50,60 min) was 2.08 and 2.09 and 2.05. For the same compound, the “pH of 0.1N HCl solution” value (50 mg in 200 ml, time by row: r6-r10=0,10,20,30,40 min) was 1.72 and 1.71, the “pH of 0.1N HCl solution” value (100 mg in 200 ml, time by row: r6-r10=0,10,20,30,40 min) was 1.75 and 1.71 and 1.76 and the “effect on the pH of the solution” value (50 and 100 mg/200 ml, 40 minute timecourse) was “neither tested amount was sufficient to raise the pH”.
With `O=C([O-])[O-].[Na+].[Na+]` [sodium carbonate] the “pH of 0.1N HCl solution” value (11.13 mg in 200 ml, time by row: r7-r12=0-5 min, r13-r16=10,15,20,60 min) was 2.80 and 2.66, the “pH of 0.1N HCl solution” value (30.11 mg in 200 ml, time by row: r7-r12=0-5 min, r13-r16=10,15,20,60 min) was 3.25 and 3.26 and 3.27 and 2.57 and 3.21 and 3.24 and the “effect on the pH of the solution” value (81.68 mg in 200 ml, 60 minute timecourse) was “raise the pH of the 200 ml solution to above neutral”.
In the case of `CCCCCCCCCCCCOS(=O)(=O)[O-].[Na+]` [sodium lauryl sulfate], the “pH of 0.1N HCl solution” value (10 mg (10.22 mg actual) in 200 ml, time by row: r6-r16=0-10 min, r17=20, r18=30 min, sulfate) is reported as 2.67 and 2.68 and the “effect on the pH of the solution” value (10 mg in 200 ml, 30 minute timecourse) is reported as “insufficient to substantially raise the pH”.
